Data on ten compounds can be found in ChEMBL document CHEMBL2385025, “Detour of prenostodione synthesis towards pyrazolones for antibacterial activity” (2013).

The subject of assay [1] is Staphylococcus aureus. As to the kind of experiment: Inhibition of biofilm formation of Staphylococcus aureus MRSA 1094 at 50 uM by crystal violet staining-based spectrophotometric analysis relative to control.
For assay [2], the system named is Staphylococcus epidermidis. The assay is described as follows: Inhibition of biofilm formation of Staphylococcus epidermidis 1457 at 50 uM by crystal violet staining-based spectrophotometric analysis relative to control. Format: functional.
In assay [3] the test system is Staphylococcus epidermidis. As to the kind of experiment: Growth inhibition of Staphylococcus epidermidis 1457 at 50 uM relative to control. Type of assay: functional. The following applies: read-out: GI.
The test system of assay [4] is Staphylococcus aureus. The assay is described as follows: Growth inhibition of methicillin-sensitive Staphylococcus aureus at 50 uM relative to control. Format: functional. As to conditions: read-out: GI.
The test system of assay [5] is Staphylococcus epidermidis. The assay is described as follows: Inhibition of biofilm formation of Staphylococcus epidermidis GTC 18972 at 50 uM by crystal violet staining-based spectrophotometric analysis relative to control. Format: functional.
Assay [6] has as its system Staphylococcus epidermidis. The assay is described as follows: Growth inhibition of Staphylococcus epidermidis GTC 18972 at 50 uM relative to control. Type of assay: functional. The following applies: read-out: GI.
The test system of assay [7] is Staphylococcus aureus. The assay is described as follows: Growth inhibition of Staphylococcus aureus ATCC 35556 at 50 uM relative to control. Format: functional. As to conditions: read-out: GI.
The subject of assay [8] is Staphylococcus aureus. As to the kind of experiment: Inhibition of biofilm formation of methicillin-sensitive Staphylococcus aureus at 50 uM by crystal violet staining-based spectrophotometric analysis relative to control. Type of assay: functional.
Assay [9] deals with Pseudomonas aeruginosa. As to the kind of experiment: Growth inhibition of Pseudomonas aeruginosa PAO1 at 50 uM relative to control. The following applies: read-out: GI. Type of assay: functional.
The test system of assay [10] is Pseudomonas aeruginosa. As to the kind of experiment: Inhibition of biofilm formation of Pseudomonas aeruginosa PAO1 at 50 uM by crystal violet staining-based spectrophotometric analysis relative to control. Format: functional.
In assay [11] the test system is Staphylococcus aureus. As to the kind of experiment: Inhibition of biofilm formation of Staphylococcus aureus ATCC 35556 at 50 uM by crystal violet staining-based spectrophotometric analysis relative to control. Format: functional.
Assay [12] relates to Staphylococcus aureus. As to the kind of experiment: Growth inhibition of Staphylococcus aureus MRSA 1094 at 50 uM relative to control. As to conditions: read-out: GI.

By inhibition is commonly meant the change of the read-out against control, counted positive when it falls. Turning to `COC(=O)CC1=NN(c2ccccc2)C(=O)/C1=C\c1ccccc1Br`, the inhibition at 50 µM with Staphylococcus aureus [1] is 87.9%; in assay [2] it was 50.8%; in [5], 82.6%; with Staphylococcus aureus [8] it was 46.5%; in the assay on Pseudomonas aeruginosa [10] it was -22.9%; with Staphylococcus aureus [11], 65.8%. Besides, the inhibition of growth at 50 µM in [3] is 32.4%; in the assay on Staphylococcus aureus [4], 8.69%; in [6] it was 55%; with Staphylococcus aureus [7], -6.96%; in the assay with Pseudomonas aeruginosa [9], 9.21%; in the assay with Staphylococcus aureus [12], 53.5%.

Consider `COC(=O)CC1=NN(c2ccccc2)C(=O)/C1=C\c1ccc(N(C)C)cc1`, for which the inhibition at 50 µM in the assay on Staphylococcus aureus [1] is 35.9%; in assay [2] it was 1.24%; in [5], 3.75%; with Staphylococcus aureus [8] it was -27.3%; in the assay on Pseudomonas aeruginosa [10] it was -79.8%; in the assay on Staphylococcus aureus [11], 9.7%. Further, the inhibition of growth at 50 µM is 9.19% in assay [3]; -11.4% in the assay with Staphylococcus aureus [4]; 27.7% in [6]; -18.4% in the assay on Staphylococcus aureus [7]; 2.45% in the assay with Pseudomonas aeruginosa [9]; 11.5% with Staphylococcus aureus [12].

With `COC(=O)CC1=NN(c2ccccc2)C(=O)/C1=C\c1ccsc1`, the inhibition at 50 µM in the assay on Staphylococcus aureus [1] is -23.8%; in assay [2] it was 2.03%; in [5], 10.8%; in the assay on Staphylococcus aureus [8] it was -5.79%; with Pseudomonas aeruginosa [10] it was -4.41%; in the assay with Staphylococcus aureus [11] it was 0.355%. In addition, the inhibition of growth at 50 µM in [3] was 14.3%; in the assay with Staphylococcus aureus [4] it was -3.06%; in assay [6], 33.8%; with Staphylococcus aureus [7], -17.5%; with Pseudomonas aeruginosa [9], 10.8%; in the assay on Staphylococcus aureus [12], 15%.

Regarding `COC(=O)CC1=NN(c2ccccc2)C(=O)/C1=C\c1ccc(Cl)cc1`, the inhibition at 50 µM amounted to 21.5% in the assay with Staphylococcus aureus [1]; 6.08% in [2]; 20.4% in assay [5]; 86.7% in the assay on Staphylococcus aureus [8]; 9.68% in the assay with Pseudomonas aeruginosa [10]; 88.1% in the assay with Staphylococcus aureus [11]. Further, the inhibition of growth at 50 µM in assay [3] is 23.1%; in the assay on Staphylococcus aureus [4], 21.9%; in [6], 32.4%; in the assay with Staphylococcus aureus [7] it was 10.3%; with Pseudomonas aeruginosa [9] it was -5.15%; in the assay with Staphylococcus aureus [12], 38%.

As for `COC(=O)CC1=NN(c2ccccc2)C(=O)/C1=C\c1ccco1`, the inhibition at 50 µM in the assay with Staphylococcus aureus [1] was -167%; in [2], 9.86%; in assay [5], 12.1%; in the assay with Staphylococcus aureus [8], -15.6%; in the assay on Pseudomonas aeruginosa [10] it was 13.9%; in the assay with Staphylococcus aureus [11] it was 6.49%. Also, the inhibition of growth at 50 µM in [3] was 13.9%; with Staphylococcus aureus [4] it was -5.33%; in assay [6] it was 25.9%; with Staphylococcus aureus [7], -15.4%; in the assay with Pseudomonas aeruginosa [9], -14.8%; with Staphylococcus aureus [12], 20.4%.

Regarding `COC(=O)CC1=NN(c2ccccc2)C(=O)/C1=C\c1c[nH]c2ccccc12`, the inhibition at 50 µM was -126% in the assay on Staphylococcus aureus [1]; 47.7% in [2]; 54.5% in assay [5]; 8.02% in the assay on Staphylococcus aureus [8]; -38.5% in the assay with Pseudomonas aeruginosa [10]; 62% in the assay on Staphylococcus aureus [11]. Further, the inhibition of growth at 50 µM was -7.59% in assay [3]; -19.4% in the assay on Staphylococcus aureus [4]; -2.37% in assay [6]; -19.7% in the assay with Staphylococcus aureus [7]; -10.8% with Pseudomonas aeruginosa [9]; 0.914% with Staphylococcus aureus [12].

As for `CCOc1ccc(/C=C2\C(=O)N(c3ccccc3)N=C2CC(=O)OC)cc1OC`, the inhibition at 50 µM in the assay with Staphylococcus aureus [1] was 15.2%; in assay [2] it was -1.83%; in assay [5], 15.6%; in the assay on Staphylococcus aureus [8], 57.8%; in the assay with Pseudomonas aeruginosa [10], -5.61%; with Staphylococcus aureus [11], 34%. Besides, the inhibition of growth at 50 µM in [3] is 4.08%; in the assay on Staphylococcus aureus [4], -0.402%; in [6], 22%; with Staphylococcus aureus [7] it was -2.46%; in the assay on Pseudomonas aeruginosa [9], -1.25%; with Staphylococcus aureus [12] it was 2.81%.

On to `COC(=O)CC1=NN(c2ccccc2)C(=O)/C1=C\c1cc(OC)c(OC)c(OC)c1`, for which the inhibition at 50 µM in the assay with Staphylococcus aureus [1] was 2.88%; in assay [2] it was 10.6%; in assay [5], 12.8%; in the assay on Staphylococcus aureus [8], 19.8%; with Pseudomonas aeruginosa [10] it was 11%; in the assay on Staphylococcus aureus [11] it was 31.2%. Besides, the inhibition of growth at 50 µM in assay [3] is 15.8%; with Staphylococcus aureus [4], 1.49%; in assay [6], 33.8%; in the assay on Staphylococcus aureus [7], -3.34%; in the assay on Pseudomonas aeruginosa [9], -0.864%; in the assay with Staphylococcus aureus [12], 20.9%.

Consider `COC(=O)CC1=NN(c2ccccc2)C(=O)/C1=C\c1ccc(O)cc1`, for which the inhibition at 50 µM with Staphylococcus aureus [1] was -7.01%; in [2], 3.69%; in [5] it was 2.6%; in the assay on Staphylococcus aureus [8] it was 9.96%; with Pseudomonas aeruginosa [10], -5.96%; in the assay on Staphylococcus aureus [11], -0.723%. Also, the inhibition of growth at 50 µM in assay [3] is 15%; in the assay on Staphylococcus aureus [4] it was -5.33%; in [6], 30.2%; in the assay with Staphylococcus aureus [7], -7.76%; in the assay with Pseudomonas aeruginosa [9] it was 14.1%; in the assay with Staphylococcus aureus [12] it was 7.95%.

As for `COC(=O)CC1=NN(c2ccccc2)C(=O)/C1=C\c1ccc(OC)cc1OC`, the inhibition at 50 µM was 37.6% in the assay with Staphylococcus aureus [1]; -0.983% in assay [2]; -5.55% in [5]; -61.9% with Staphylococcus aureus [8]; -31.1% with Pseudomonas aeruginosa [10]; 1.53% with Staphylococcus aureus [11]. In addition, the inhibition of growth at 50 µM is -1.75% in [3]; -6.08% in the assay with Staphylococcus aureus [4]; 20.5% in [6]; -5.55% in the assay with Staphylococcus aureus [7]; -3.78% with Pseudomonas aeruginosa [9]; -0.169% in the assay with Staphylococcus aureus [12].
